Measured values from US11028064B2, “Tricyclic heterocyclic derivatives and uses thereof” (AUCKLAND UNISERVICES LIMITED, priority 2016, dated 2021).

The compounds below were run against CSF-1R (FMS) (Homo sapiens (Human), UniProt P07333) (assay: SelectScreen Z'-LYTE kinase assay, Assay 336 for CSF-1R (FMS)). Settings: Z'-LYTE activity assay, 500 μM ATP (Km app); read-out: CSF-1R Enzyme IC50.
Type: biochemical

CSF-1R (FMS), sequence (P07333 20-972): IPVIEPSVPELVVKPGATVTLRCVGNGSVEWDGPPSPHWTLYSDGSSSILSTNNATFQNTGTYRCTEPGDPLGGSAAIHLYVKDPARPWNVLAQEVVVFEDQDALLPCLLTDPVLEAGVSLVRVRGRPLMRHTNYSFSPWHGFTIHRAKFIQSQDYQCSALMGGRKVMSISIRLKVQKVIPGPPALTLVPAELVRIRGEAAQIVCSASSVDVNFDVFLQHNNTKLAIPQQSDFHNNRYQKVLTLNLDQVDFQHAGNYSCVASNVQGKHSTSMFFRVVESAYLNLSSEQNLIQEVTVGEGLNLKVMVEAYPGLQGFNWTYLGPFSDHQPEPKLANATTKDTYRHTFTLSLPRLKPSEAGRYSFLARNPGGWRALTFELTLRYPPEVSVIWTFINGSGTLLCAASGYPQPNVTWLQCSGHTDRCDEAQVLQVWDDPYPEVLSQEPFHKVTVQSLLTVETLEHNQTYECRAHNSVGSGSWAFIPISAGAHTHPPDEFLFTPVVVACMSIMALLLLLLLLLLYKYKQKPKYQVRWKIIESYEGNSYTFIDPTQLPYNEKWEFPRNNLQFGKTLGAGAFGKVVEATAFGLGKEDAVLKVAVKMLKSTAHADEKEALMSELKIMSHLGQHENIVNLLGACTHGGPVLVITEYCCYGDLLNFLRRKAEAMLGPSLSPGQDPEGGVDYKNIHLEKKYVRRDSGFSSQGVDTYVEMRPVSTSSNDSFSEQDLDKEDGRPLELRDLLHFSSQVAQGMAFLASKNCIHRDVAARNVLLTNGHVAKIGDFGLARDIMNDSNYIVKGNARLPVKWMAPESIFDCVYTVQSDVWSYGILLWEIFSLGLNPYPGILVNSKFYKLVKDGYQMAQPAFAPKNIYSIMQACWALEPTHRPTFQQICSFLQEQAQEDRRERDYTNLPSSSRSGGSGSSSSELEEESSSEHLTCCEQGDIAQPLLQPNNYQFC

First: Cc1cc(OCCCN2CCOCC2)c2oc3cc(Oc4ccccc4)ccc3c(=O)c2c1 [Example 33, 2-Methyl-4-(3-morpholinopropoxy)-6-phenoxy-9H-xanthen-9-one]
Second: Cc1cc(OCCN(C)C)c2oc3cc(Oc4ccc(CCNC(=O)N5CCCC5)nc4)ccc3c(=O)c2c1 [Example 27, N-(2-(5-((5-(2-(Dimethylamino)ethoxy)-7-methyl-9-oxo-9H-xanthen-3-yl)oxy)pyridin-2-yl)ethyl)pyrrolidine-1-carboxamide]
The IC50 of the first is higher: 100 to 1000 nM for the first, less than 100 nM for the second. The second is the more potent here.

Cc1cc(OCCN(C)C)c2sc3cc(Oc4ccc(CCC(=O)NC5CCCC5)nc4)ccc3c(=O)c2c1 [Example 51, N-Cyclopentyl-3-(5-((5-(2-(dimethylamino)ethoxy)-7-methyl-9-oxo-9H-thioxanthen-3-yl)oxy)pyridin-2-yl)propanamide] and Cc1cc(OCCCN(C)C)c2oc3cc(Oc4ccc(CCC(=O)NC5CCCC5)nc4)ccc3c(=O)c2c1 [Example 63, N-Cyclopentyl-3-(5-((5-(3-(dimethylamino)propoxy)-7-methyl-9-oxo-9H-xanthen-3-yl)oxy)pyridin-2-yl)propanamide] cannot be ordered by IC50: less than 100 nM for the first, less than 100 nM for the second.

COc1ccc(CNc2ccc(Oc3ccc4c(=O)c5cc(C)cc(OCCN(C)C)c5oc4c3)cn2)cn1 [Example 16, 4-(2-(Dimethylamino)ethoxy)-6-((6-(((6-methoxypyridin-3-yl)methyl)amino)pyridin-3-yl)oxy)-2-methyl-9H-xanthen-9-one] and COc1ccc(CNc2ccc(Oc3ccc4c(=O)c5cc(C)cc(OCCN(C)C)c5oc4c3)cn2)cc1 [Example 14, 4-(2-(Dimethylamino)ethoxy)-6-((6-((4-methoxybenzyl)amino)pyridin-3-yl)oxy)-2-methyl-9H-xanthen-9-one] cannot be ordered by IC50: less than 100 nM for the first, less than 100 nM for the second.

Cc1cc(OC[C@@H]2CCCN2C)c2oc3cc(Oc4ccc(CCC(=O)NC5CCCC5)nc4)ccc3c(=O)c2c1 [Example 73, (S)—N-Cyclopentyl-3-(5-((7-methyl-5-((1-methylpyrrolidin-2-yl)methoxy)-9-oxo-9H-xanthen-3-yl)oxy)pyridin-2-yl)propanamide] and Cc1cc(OCCN2CCCCC2)c2oc3cc(Oc4ccc(CCC(=O)NC5CCCC5)nc4)ccc3c(=O)c2c1 [Example 38, N-Cyclopentyl-3-(5-((7-methyl-9-oxo-5-(2-(piperidin-1-yl)ethoxy)-9H-xanthen-3-yl)oxy)pyridin-2-yl)propanamide] cannot be ordered by IC50: less than 100 nM for the first, less than 100 nM for the second.

Cc1cc(OCCN(C)C)c2oc3cc(Oc4ccc(CCNC(=O)C5CCCC5)nc4)ccc3c(=O)c2c1 [Example 26, N-(2-(5-((5-(2-(Dimethylamino)ethoxy)-7-methyl-9-oxo-9H-xanthen-3-yl)oxy)pyridin-2-yl)ethyl)cyclopentanecarboxamide] and Cc1cc(OCCN(C)C)c2oc3cc(Oc4ccc(CCC(=O)Nc5cccnc5)nc4)ccc3c(=O)c2c1 [Example 21, 3-(5-((5-(2-(Dimethylamino)ethoxy)-7-methyl-9-oxo-9H-xanthen-3-yl)oxy)pyridin-2-yl)-N-(pyridin-3-yl)propanamide] cannot be ordered by IC50: less than 100 nM for the first, less than 100 nM for the second.

Compared with Cc1ccc2c(c1)c(=O)c1ccc(Sc3ccccc3)cc1n2CCCN(C)C [Example 52, 10-(3-(Dimethylamino)propyl)-2-methyl-6-(phenylthio)acridin-9(10H)-one], COc1ccc(CCc2ccc(Oc3ccc4c(=O)c5cccc(OCCN(C)C)c5oc4c3)cn2)cc1 [Example 3, 5-[2-(Dimethylamino)ethoxy]-3-({6-[2-(4-methoxyphenyl)ethyl]-3-pyridinyl}oxy)-9H-xanthen-9-one] is lower in IC50: 1000 to 10000 nM for the first, 100 to 1000 nM for the second. The second is the more potent here.

The compounds below were run against KDR (VEGFR2) (Homo sapiens (Human), UniProt P35968) (assay: SelectScreen Z'-LYTE kinase assay, Assay 540 for KDR (VEGFR2)). Settings: Z'-LYTE activity assay, 75 μM ATP (Km app); read-out: VEGFR2 Enzyme IC50.
KDR (VEGFR2), sequence (P35968 20-1356): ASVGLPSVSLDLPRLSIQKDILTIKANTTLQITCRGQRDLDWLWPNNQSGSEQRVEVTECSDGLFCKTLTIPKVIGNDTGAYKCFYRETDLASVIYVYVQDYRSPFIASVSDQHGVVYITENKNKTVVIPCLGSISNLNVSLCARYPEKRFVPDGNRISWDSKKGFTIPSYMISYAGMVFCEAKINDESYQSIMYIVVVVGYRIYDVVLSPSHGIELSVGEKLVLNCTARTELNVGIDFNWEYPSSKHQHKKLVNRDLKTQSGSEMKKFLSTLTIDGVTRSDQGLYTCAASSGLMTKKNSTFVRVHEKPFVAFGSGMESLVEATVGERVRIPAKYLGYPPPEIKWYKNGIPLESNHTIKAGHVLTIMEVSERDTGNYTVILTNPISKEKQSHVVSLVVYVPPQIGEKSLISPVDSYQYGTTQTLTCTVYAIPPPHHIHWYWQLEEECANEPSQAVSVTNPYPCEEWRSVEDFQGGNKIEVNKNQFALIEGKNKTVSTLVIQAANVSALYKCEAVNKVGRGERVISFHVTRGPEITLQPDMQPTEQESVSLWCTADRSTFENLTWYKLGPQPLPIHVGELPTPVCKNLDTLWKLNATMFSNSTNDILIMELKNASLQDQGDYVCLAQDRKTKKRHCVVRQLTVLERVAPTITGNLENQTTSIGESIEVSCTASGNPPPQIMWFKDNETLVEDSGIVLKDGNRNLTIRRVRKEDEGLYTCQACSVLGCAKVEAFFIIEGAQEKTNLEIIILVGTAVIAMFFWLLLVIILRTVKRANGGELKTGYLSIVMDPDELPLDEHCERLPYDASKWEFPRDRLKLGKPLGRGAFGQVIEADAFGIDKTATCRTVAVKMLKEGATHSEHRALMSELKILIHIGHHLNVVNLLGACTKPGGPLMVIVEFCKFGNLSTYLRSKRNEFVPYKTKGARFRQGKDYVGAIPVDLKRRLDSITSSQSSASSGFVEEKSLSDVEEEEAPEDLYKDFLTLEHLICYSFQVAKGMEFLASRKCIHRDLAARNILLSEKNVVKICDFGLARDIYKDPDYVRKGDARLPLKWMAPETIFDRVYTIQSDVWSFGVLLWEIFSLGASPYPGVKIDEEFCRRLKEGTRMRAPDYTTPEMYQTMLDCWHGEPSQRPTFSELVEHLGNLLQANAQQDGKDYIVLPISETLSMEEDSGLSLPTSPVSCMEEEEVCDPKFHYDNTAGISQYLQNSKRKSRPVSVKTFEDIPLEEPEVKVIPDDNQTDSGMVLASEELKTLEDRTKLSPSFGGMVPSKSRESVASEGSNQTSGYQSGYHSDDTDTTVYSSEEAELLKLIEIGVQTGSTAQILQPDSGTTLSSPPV
Type: biochemical

First: Cc1cc(OCCCN2CCOCC2)c2oc3cc(Oc4ccccc4)ccc3c(=O)c2c1 [Example 33, 2-Methyl-4-(3-morpholinopropoxy)-6-phenoxy-9H-xanthen-9-one]
Second: Cc1cc(OCCN(C)C)c2oc3cc(Oc4cccc(C(=O)Nc5ccccc5)c4)ccc3c(=O)c2c1 [Example 5, 3-((5-(2-(Dimethylamino)ethoxy)-7-methyl-9-oxo-9H-xanthen-3-yl)oxy)-N-phenyl-benzamide]
The IC50 of the first is higher: greater than 10000 nM for the first, 1000 to 10000 nM for the second. The second is the more potent here.

Cc1cc(OC2CCN(C)CC2)c2oc3cc(Oc4ccc(CCC(=O)NC5CCCC5)nc4)ccc3c(=O)c2c1 [Example 71, N-Cyclopentyl-3-[5-({7-methyl-5-[(1-methyl-4-piperidinyl)oxy]-9-oxo-9H-xanthen-3-yl}oxy)-2-pyridinyl]propanamide] was tested, and the IC50 was 1000 to 10000 nM.
